One experiment concerns the target T1, Tyrosinase (Homo sapiens, UniProt P14679).
T1 sequence (P14679 whole entry): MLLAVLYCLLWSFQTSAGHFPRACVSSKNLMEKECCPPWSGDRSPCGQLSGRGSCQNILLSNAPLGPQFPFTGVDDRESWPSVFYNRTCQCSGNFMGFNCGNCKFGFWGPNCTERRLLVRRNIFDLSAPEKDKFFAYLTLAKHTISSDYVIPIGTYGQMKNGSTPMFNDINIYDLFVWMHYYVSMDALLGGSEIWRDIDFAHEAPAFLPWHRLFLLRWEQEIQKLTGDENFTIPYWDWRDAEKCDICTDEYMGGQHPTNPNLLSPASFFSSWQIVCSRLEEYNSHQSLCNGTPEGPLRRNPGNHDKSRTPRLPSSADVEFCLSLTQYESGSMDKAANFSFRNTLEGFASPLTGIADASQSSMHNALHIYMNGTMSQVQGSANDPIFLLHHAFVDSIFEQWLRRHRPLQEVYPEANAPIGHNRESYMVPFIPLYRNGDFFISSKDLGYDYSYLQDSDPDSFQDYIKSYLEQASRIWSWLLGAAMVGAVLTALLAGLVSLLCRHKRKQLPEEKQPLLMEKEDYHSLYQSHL
In words: Inhibition of human tyrosinase.
In the case of `O=c1oc2ccccc2cc1O` [3-HYDROXYCOUMARIN], the IC50 is 26 µM.

The target in a further experiment is T2, Mushroom tyrosinase (Agaricus bisporus, UniProt O42713+Q00024+C7FF04+C7FF05). In words: Inhibition of mushroom tyrosinase using L-DOPA as substrate by spectrophotometric analysis. Type of experiment: protein assay.
In the case of `O=c1[nH]c2ccccc2cc1O`, the IC50 is 2.74 µM. Take `O=c1[nH]c2ccc(Br)cc2cc1O`: the IC50 was found to be 2.52 µM. On to `CC(C)C(=O)Nc1nc(-c2ccc(O)cc2O)cs1`, for which the IC50 came to 0.13 µM. In turn, `Cc1ccc2[nH]c(=O)c(O)cc2c1` showed an IC50 of 6.11 µM. On the same count and under the same terms, with `O=c1[nH]c2cccc(Cl)c2cc1O` the figure was 92.7 µM. On to `Cc1ccc2cc(O)c(=O)[nH]c2c1`, for which the IC50 is 173 µM. This IC50 lies about 1.9-fold higher than the previous one.

In turn, `O=c1[nH]c2ccc(F)cc2cc1O` gave an IC50 of 3.57 µM. This IC50 is about 48-fold lower than that of the molecule before. In the case of `Cc1cc(C)c2cc(O)c(=O)[nH]c2c1`, the 50% inhibitory concentration (IC50) is 926 µM. This IC50 lies about 260-fold higher than the previous one. `Cc1cc2cc(O)c(=O)[nH]c2cc1C` gave a half-maximal inhibitory concentration (IC50) of 43.5 µM. For the molecule `O=c1oc2ccccc2cc1O` [3-HYDROXYCOUMARIN], the IC50 is 2.49 µM. This IC50 lies about 17-fold lower than the previous one.

Another experiment deals with T2, Mushroom tyrosinase. In words: Competitive inhibition of mushroom tyrosinase using L-DOPA as substrate assessed as inhibition constant by Lineweaver-Burk plots analysis. Type of experiment: protein assay.
As to `Cc1ccc2[nH]c(=O)c(O)cc2c1`, the Ki turned out to be 1.41 µM.

For the origin of these results see ChEMBL document CHEMBL5576066, “Synthesis and evaluation of 3-hydroxyquinolin-2(1H)-one derivatives as inhibitors of tyrosinase” (Bioorg Med Chem Lett, 2024).
